Earlier results, collected in patent publication US8642577B2 (priority 2005, dated 2014).

Test system: poxvirus
Conditions: in vivo, po

| SMILES | activity against poxvirus when given orally |
| --- | --- |
| Nc1ccn(C[C@@H](CO)OCP(=O)(O)O)c(=O)n1 [CDV, cidofovir] | inactive when given orally |
| Nc1ccn(C[C@H]2COP(=O)(O)CO2)c(=O)n1 [cCDV, cyclic cidofovir] | inactive when given orally |
